The source of these data is patent US20110313156A1 (BOEHRINGER INGELHEIM INTERNATIONAL GMBH, priority 2008, published 2011).

The assay addresses T1, His6-PDK1 (aa 52-556) (Homo sapiens, UniProt O15530).
T1 construct: 15 μL His6-PDK1 (aa 52-556) 3.33 ng/well); host or cells: baculovirus-infected insect cells
T1 sequence (O15530 52-556): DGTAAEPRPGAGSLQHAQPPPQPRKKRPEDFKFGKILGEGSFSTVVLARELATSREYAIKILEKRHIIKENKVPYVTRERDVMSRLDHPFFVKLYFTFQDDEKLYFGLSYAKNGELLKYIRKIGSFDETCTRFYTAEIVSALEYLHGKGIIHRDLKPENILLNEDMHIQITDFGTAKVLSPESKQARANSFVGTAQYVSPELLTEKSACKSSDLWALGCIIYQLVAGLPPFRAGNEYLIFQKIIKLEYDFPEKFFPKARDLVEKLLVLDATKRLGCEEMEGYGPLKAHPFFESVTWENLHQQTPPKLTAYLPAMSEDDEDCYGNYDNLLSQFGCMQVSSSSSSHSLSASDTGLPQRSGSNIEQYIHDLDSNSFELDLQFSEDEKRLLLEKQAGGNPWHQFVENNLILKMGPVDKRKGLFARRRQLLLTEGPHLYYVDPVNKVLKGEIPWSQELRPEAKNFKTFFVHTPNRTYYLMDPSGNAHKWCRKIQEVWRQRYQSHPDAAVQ
The experiment in a line: PDK1 kinase assay III (with Tween 20). Type of assay: biochemical. The following applies: compound at 10 μM; PDK1 kinase assay III (values without asterisk); read-out: % CTL (residual activity of the enzyme relative to DMSO control). The procedure, abridged:
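Started with ATP, incubated 90 min at ambient temperature, then stopped with phosphoric acid. Asterisked values come from assay II (24 h or 5 min incubation).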

For the compound `CN1CCC(N(C)c2ccc(Nc3ncc4cc(C#CCNC(=O)c5ccnn(Cc6ccc(F)c(F)c6)c5=O)ccc4n3)cc2)CC1` [III-36, 2-(3,4-difluorobenzyl)-N-{3-[2-({4-[methyl(1-methylpiperidin-4-yl)amino]phenyl}amino)quinazolin-6-yl]prop-2-yn-1-yl}-3-oxo-2,3-dihydropyridazine-4-carboxamide], the remaining activity at 10 µM was found to be 13.2%. Take `CN(C)Cc1ccc(Nc2ncc3cc(C#CCNC(=O)c4cc(Cl)nn(Cc5ccc(F)c(F)c5)c4=O)ccc3n2)cc1` [III-37, 6-chloro-2(3,4-difluorobenzyl)-N-{3-[2-({4-[(dimethylamino)methyl]phenyl}-amino)quinazolin-6-yl]prop-2-yn-1-yl}-3-oxo-2,3-dihydropyridazine-4-carboxamide]: the remaining activity at 10 µM was determined as 13.8%. As for `CN1CCC(Nc2ccc(Nc3ncc4cc(C#CCNC(=O)c5cc(Cl)nn(Cc6ccc(F)c(F)c6)c5=O)ccc4n3)cc2F)CC1` [III-38, 6-chloro-2(3,4-difluorobenzyl)-N-{3-[2-({3-fluoro-4-[(1-methylpiperidin-4-yl)-amino]phenyl}amino)quinazolin-6-yl]prop-2-yn-1-yl}-3-oxo-2,3-dihydropyridazine-4-carboxamide], the remaining activity at 10 µM worked out at 13.2%.

In the case of `CCOC(=O)c1ccc(Nc2ncc3cc(C#CCNC(=O)c4cncn(Cc5ccc(F)c(F)c5)c4=O)ccc3n2)cc1` [III-39, ethyl-4-({6-[3-({[1-(3,4-difluorobenzyl)-6-oxo-1,6-dihydropyrimidin-5-yl]carbonyl}amino)prop-1-yn-1-yl]quinazolin-2-yl}amino)benzoate], the remaining activity at 10 µM stood at 19%. Regarding `Cc1c(C(=O)NCC#Cc2ccc3nc(Nc4ccc(N(C)C5CCN(C)CC5)cc4)ncc3c2)c(=O)n(Cc2ccc(F)c(F)c2)n1C` [III-40, 2-(3,4-difluorobenzyl)-1,5-dimethyl-N-{3-[2-({4-[methyl(1-methylpiperidin-4-yl)amino]phenyl}amino)quinazolin-6-yl]prop-2-yn-1-yl}-3-oxo-2,3-dihydro-1H-pyrazole-4-carboxamide], the remaining activity at 10 µM was 13.5%.

With `CN1CCC(N(C)c2ccc(Nc3ncc4cc(C#CCNC(=O)c5cc(Cl)nn(Cc6ccc(F)c(F)c6)c5=O)ccc4n3)cc2)CC1` [III-41, 6-chloro-2(3,4-difluorobenzyl)-N-{3-[2-({4-[methyl(1-methylpiperidin-4-yl)amino]phenyl}amino)quinazolin-6-yl]prop-2-yn-1-yl}-3-oxo-2,3-dihydropyridazine-4-carboxamide], the remaining activity at 10 µM was 12.7%. Next, `Nc1ncc2cc(C#CCNC(=O)c3cncn(Cc4ccc(F)c(F)c4)c3=O)ccc2n1` [III-42, N-[3-(2-aminoquinazolin-6-yl)prop-2-yn-1-yl]-1-(3,4-difluorobenzyl)-6-oxo-1,6-dihydropyrimidine-5-carboxamide]: 14.7%; `CNc1ncc2cc(C#CCNC(=O)c3cncn(Cc4ccc(F)c(F)c4)c3=O)ccc2n1` [III-43, 1-(3,4-difluorobenzyl)-N-{3-[2-(methylamino)quinazolin-6-yl]prop-2-yn-1-yl}-6-oxo-1,6-dihydropyrimidine-5-carboxamide]: 20.3%; `N#Cc1ccc(Nc2ncc3cc(C#CCNC(=O)c4cncn(Cc5ccc(F)c(F)c5)c4=O)ccc3n2)cc1` [III-44, N-(3-{2-[(4-cyanophenyl)amino]quinazolin-6-yl}prop-2-yn-1-yl)-1-(3,4-difluorobenzyl)-6-oxo-1,6-dihydropyrimidine-5-carboxamide]: 30.4%. Next, `Cc1c(C(=O)NCC#Cc2ccc3nc(Nc4ccc(C#N)cc4)ncc3c2)c(=O)n(Cc2ccc(F)c(F)c2)n1C` [III-45, N-(3-{2-[(4-cyanophenyl)amino]quinazolin-6-yl}prop-2-yn-1-yl)-2-(3,4-difluorobenzyl)-1,5-dimethyl-3-oxo-2,3-dihydro-1H-pyrazole-4-carboxamide]: 19.8%; `COC(=O)c1ccc(Nc2ncc3cc(C#CCNC(=O)c4c(C)n(C)n(Cc5ccc(F)c(F)c5)c4=O)ccc3n2)cc1` [III-46, methyl-4-({6-[3-({[2-(3,4-difluorobenzyl)-1,5-dimethyl-3-oxo-2,3-dihydro-1H-pyrazol-4-yl]carbonyl}amino)prop-1-yn-1-yl]quinazolin-2-yl}amino)benzoate]: 21%. Next, `Cc1c(C(=O)NCC#Cc2ccc3nc(Nc4ccc(C(=O)O)cc4)ncc3c2)c(=O)n(Cc2ccc(F)c(F)c2)n1C` [III-47]: 13.3%; `CNc1ncc2cc(/C=C/CNC(=O)c3cncn(Cc4ccc(F)c(F)c4)c3=O)cc(OCCN)c2n1` [III-59]: 18.3%. Regarding `NCCOc1cc(/C=C/CNC(=O)c2cncn(Cc3ccc(F)c(F)c3)c2=O)cc2cnc(Nc3ccccc3)nc12` [III-63], the remaining activity at 10 µM was found to be 14.2%.

Consider `Cc1c(C(=O)NCC#Cc2cc(OCCCN)c3nc(Nc4ccc(N5CCOCC5)cc4)ncc3c2)c(=O)n(Cc2ccc(F)c(F)c2)n1C` [III-74], for which the remaining activity at 10 µM came to 13%. Next, `Cc1c(C(=O)NCC#Cc2cc(OC3CCNC3)c3nc(Nc4ccc(N5CCOCC5)cc4)ncc3c2)c(=O)n(Cc2ccc(F)c(F)c2)n1C` (centres unmarked) [III-76]: 11.8%; `Cc1cccc(Nc2ncc3cc(C#CCNC(=O)c4c(C)n(C)n(Cc5ccc(F)c(F)c5)c4=O)ccc3n2)c1` [III-79]: 20%; `Cc1c(C(=O)NCC#Cc2ccc3nc(Nc4ccc(C(=O)N(C)CCCN(C)C)cc4)ncc3c2)c(=O)n(Cc2ccc(F)c(F)c2)n1C` [III-90]: 13.3%.

In the case of `COCCCN(C)C(=O)c1ccc(Nc2ncc3cc(C#CCNC(=O)c4cncn(Cc5ccc(F)c(F)c5)c4=O)ccc3n2)cc1` [III-104], the remaining activity at 10 µM is 15.8%.

As to `O=C(NCCO)c1ccc(Nc2ncc3cc(C#CCNC(=O)c4cncn(Cc5ccc(F)c(F)c5)c4=O)ccc3n2)cc1` [III-115], the remaining activity at 10 µM was determined as 13.5%. Next, `CN(C)Cc1ccc(Nc2ncc3cc(/C=C/CNC(=O)c4cncn(Cc5ccc(F)c(F)c5)c4=O)ccc3n2)cc1` [IV-3, 1-(3,4-difluorobenzyl)-N-{(2E)-3-[2-({4-[(dimethylamino)methyl]phenyl}amino)-quinazolin-6-yl]prop-2-en-1-yl}-6-oxo-1,6-dihydropyrimidine-5-carboxamide]: 11.1%. Next, `Cc1c(C(=O)NC/C=C/c2ccc3nc(Nc4ccccc4)ncc3c2)c(=O)n(Cc2ccc(F)c(F)c2)n1C` [IV-5, 2-(3,4-difluorobenzyl)-1,5-dimethyl-3-oxo-N-{(2E)-3-[2-(phenylamino)quinazolin-6-yl]prop-2-en-1-yl}-2,3-dihydro-1H-pyrazole-4-carboxamide]: 13.6%; `COc1cc(/C=C/CNC(=O)c2cncn(Cc3ccc(F)c(F)c3)c2=O)cc2cnc(Nc3ccc(CN(C)C)cc3)nc12` [IV-18, 1-(3,4-difluorobenzyl)-N-{(2E)-3-[2-({4-[(dimethylamino)methyl]phenyl}amino)-8-methoxyquinazolin-6-yl]prop-2-en-1-yl}-6-oxo-1,6-dihydropyrimidine-5-carboxamide]: 15%.
